The conditions of data set [1]: during tablet manufacture and storage.
Excerpt: The chiral purity might be determined by analyzing a sample of dexpramipexole, or a pharmaceutically acceptable salt thereof, by high performance liquid chromatography (HPLC).
The subject of another data set is dopamine receptors. To be noted: cited from earlier work.
The subject of a further data set is eosinophils. To be noted: human blood and tissues; cited from earlier work.

Structures can show the parent of a compound that is named as a salt.

Turning to `CCCN[C@@H]1CCc2nc(N)sc2C1` [dexpramipexole dihydrochloride monohydrate], the “chiral purity over time” value in data set [1] is recorded as “did not change over time”.
In the case of `CCCN[C@@H]1CCc2nc(N)sc2C1` [dexpramipexole, (6R)-2-amino-4,5,6,7-tetrahydro-6-(propylamino)benzothiazole], the “affinity for dopamine receptors compared to pramipexole” value in the data set with dopamine receptors is “greatly reduced”. Further, the “effect on eosinophil counts” value in the data set with eosinophils was “selectively and significantly lower eosinophil counts”.
